Experimental data: PMC10011554, “BET inhibitor trotabresib in heavily pretreated patients with solid tumors and diffuse large B-cell lymphomas” (Nature Communications, 2023)

Assay: Adverse events, DLTs, MTD and RP2D in phase I study CC-90010-ST-001 (NCI CTCAE v4.03)
Type: in vivo
Method: The primary endpoints of the study were the safety and tolerability of trotabresib, as well as the MTD and/or RP2D of trotabresib. Safety was assessed using the National Cancer Institute Common Terminology Criteria for Adverse Events v4.03[53].
The decision to evaluate additional subjects within a dose cohort, a higher dose cohort, intermediate dose cohorts, smaller dose increments, alternate dosing schedules, or declare an MTD will also be determined by the SRC, based on their review of clinical and laboratory safety […]
7.2.4. Definition of a Subject Evaluable for DLT
After the first dose is administered in any cohort during dose escalation, subjects in each cohort […]
more than one subject per day will be enrolled in a given dose escalation cohort.
A subject evaluable for DLT is defined as one that: […]
without experiencing a DLT,
Subjects non-evaluable for DLT will be replaced. Additional subjects within any dose cohort may be enrolled at the discretion of the SRC. Intra-subject dose escalation will not be allowed during the DLT assessment period.
7.2.5. Definition of Maximum Tolerated Dose (MTD) […]
of MTD is described in Section 7.2.2.
A variable dose cohort (eg, less frequent dosing) may be evaluated to accurately determine the MTD at the discretion of the SRC.
7.2.6. Definition of Dose-Limiting Toxicity (DLT) […]
used as a guide for the grading of severity of adverse events. A DLT is defined as any of the following toxicities occurring within the DLT assessment unless the event can clearly be […]
Do se-limiting toxicities are described below:
• Hyperglycemia meeting any of the following criteria:
− Grade 3 or greater fasting hyperglycemia (> 250 mg/dL) lasting > 4 days despite optimal medical treatment
(1 picture or pasted object on this page, not shown here)
− Hyperglycemia associated with diabetic ketoacidosis or nonketotic hyperosmolar coma regardless of glucose level
− Hyperglycemia that necessitates dose reduction despite dose interruption and resolution to ≤ grade 1 hyperglycemia within two weeks as described in […]
• Any Grade 4 non-hematologic toxicity of any duration
• Any non-hematologic toxicity Grade ≥ 3 EXCEPT for:
− Grade 3 diarrhea, nausea, or vomiting of ≤ 3 days duration (with optimal medical […]
− Grade 3 rash of the acneiform, pustular or maculopapular type which resolves to […]
level with resumption of study drug at the same dose (with optimal medical […]
− Grade 3 fatigue which resolves to Grade ≤ 2 within 7 days of study drug […]
the same dose (with optimal medical management).
• Hematological toxicities as follows:
− Grade 4 neutropenia lasting > 7 days
− Grade 4 thrombocytopenia lasting > 7 days, Grade ≥ 3 thrombocytopenia with clinically significant bleeding
• Any AE, Grade ≥ 2 not specified or exempt above, unless clearly determined to be unrelated to the drug, necessitating dose-level reduction during Cycle 1.
Isolated laboratory changes without associated clinical signs or symptoms (eg, hypomagnesemia, hypermagnesemia, hypoalbuminemia, hypophosphatemia, lymphocyte count increased or decreased) may not be included in this definition. These findings will be discussed and reviewed […]
7.2.7. Criteria for Dose Escalation in the Next Cohort of Subjects
During Part A, the dose escalation criteria are described in Section 7.2.2.
7.2.8. Definition of Stopping Criteria
During Part A, the dose escalation stopping rules are in Section 7.2.2.
7.2.9. Permitted Study Drug Adjustments
Dose reductions are permitted in any cycle, including Cycle 1.
• Dose reductions that occur in Cycle 1 during dose escalation will constitute DLT as […]

[1] = part A (N = 69), 02 Dec 2019 cutoff
[2] = part A (n=69), as stated in protocol section 7.2.10.1
[3] = part A, 30 mg 3-days-on/11-days off, 02 Dec 2019 cutoff
[4] = part A, 45 mg 4-days-on/24-days-off, 02 Dec 2019 cutoff

## Cn1cc(-c2cc(S(C)(=O)=O)ccc2OCC2CC2)c2ccccc2c1=O [trotabresib]
Schedule A, 3-days-on/11-days-off (180 mg per 28-day cycle)
  MTD: 30 mg/dose
Schedule B, 4-days-on/24-days-off (180 mg per 28-day cycle)
  MTD: 45 mg/dose
Schedule C, 2-days-on/5-days-off (120 mg per 28-day cycle)
  MTD: 15 mg/dose
human, in vivo
  dose intensity below which well tolerated: below 200 mg per 28-day cycle
Overall part A population
  further grade 3 and 4 TRAEs reported in one patient each: Grade 3 essential hypertension, hypokalemia, lipase increased, liver function test abnormal, presyncope, skin hemorrhage, and grade 4 blood creatinine phosphokinase increased, diabetes mellitus, and inappropriate antidiuretic hormone secretion
Part A 45 mg/day, any grade
  TRAE: ALT increased: 0%
  TRAE: Anemia: 28.57%
  TRAE: Any TRAE: 85.71%
  TRAE: Asthenia: 14.29%
  TRAE: Decreased appetite: 0%
  TRAE: Dehydration: 0%
  TRAE: Dermatitis acneiform: 0%
  TRAE: Diarrhoea: 42.86%
  TRAE: Dysgeusia: 14.29%
  TRAE: Fatigue: 0%
  TRAE: Hyperglycemia: 0%
  TRAE: Hypertension: 0%
  TRAE: Hyponatremia: 0%
  TRAE: Hypophosphatemia: 0%
  TRAE: Nausea: 28.57%
  TRAE: Neutropenia: 0%
  TRAE: Platelet count decreased: 0%
  TRAE: Stomatitis: 42.86%
  TRAE: Thrombocytopenia: 71.43%
  TRAE: Vomiting: 14.29%
Part A 45 mg/day, grade 3
  TRAE: ALT increased: 0%
  TRAE: Anemia: 14.29%
  TRAE: Any TRAE: 14.29%
  TRAE: Asthenia: 0%
  TRAE: Decreased appetite: 0%
  TRAE: Dehydration: 0%
  TRAE: Dermatitis acneiform: 0%
  TRAE: Diarrhoea: 0%
  TRAE: Dysgeusia: 0%
  TRAE: Fatigue: 0%
  TRAE: Hyperglycemia: 0%
  TRAE: Hypertension: 0%
  TRAE: Hyponatremia: 0%
  TRAE: Hypophosphatemia: 0%
  TRAE: Nausea: 0%
  TRAE: Neutropenia: 0%
  TRAE: Platelet count decreased: 0%
  TRAE: Stomatitis: 0%
  TRAE: Thrombocytopenia: 0%
  TRAE: Vomiting: 0%
Part A 45 mg/day, grade 4
  TRAE: ALT increased: 0%
  TRAE: Anemia: 0%
  TRAE: Any TRAE: 14.29%
  TRAE: Asthenia: 0%
  TRAE: Decreased appetite: 0%
  TRAE: Dehydration: 0%
  TRAE: Dermatitis acneiform: 0%
  TRAE: Diarrhoea: 0%
  TRAE: Dysgeusia: 0%
  TRAE: Fatigue: 0%
  TRAE: Hyperglycemia: 0%
  TRAE: Hypertension: 0%
  TRAE: Hyponatremia: 0%
  TRAE: Hypophosphatemia: 0%
  TRAE: Nausea: 0%
  TRAE: Neutropenia: 0%
  TRAE: Platelet count decreased: 0%
  TRAE: Stomatitis: 0%
  TRAE: Thrombocytopenia: 14.29%
  TRAE: Vomiting: 0%
Part A (N = 69)
  subjects with at least one DLT: 6 subjects
[1]
  Grade 3 or 4 TEAE anemia: 4.3%
  Grade 3 or 4 TEAE arthralgia: 2.9%
  Grade 3 or 4 TEAE asthenia: 5.8%
  Grade 3 or 4 TEAE back pain: 2.9%
  Grade 3 or 4 TEAE cognitive disorder: 2.9%
  Grade 3 or 4 TEAE decreased performance status: 2.9%
  Grade 3 or 4 TEAE decreased platelet count: 2.9%
  Grade 3 or 4 TEAE dyspnea: 2.9%
  Grade 3 or 4 TEAE fatigue: 2.9%
  Grade 3 or 4 TEAE hyperglycemia: 5.8%
  Grade 3 or 4 TEAE hypokalemia: 2.9%
  Grade 3 or 4 TEAE hyponatremia: 2.9%
  Grade 3 or 4 TEAE increased ALT: 4.3%
  Grade 3 or 4 TEAE thrombocytopenia: 13.0%
  TEAE abdominal pain: 14.5%
  TEAE anemia: 15.9%
  TEAE asthenia: 39.1%
  TEAE constipation: 13.0%
  TEAE decreased appetite: 24.6%
  TEAE dermatitis acneiform: 13.0%
  TEAE diarrhea: 42.0%
  TEAE dysgeusia: 29.0%
  TEAE fatigue: 24.6%
  TEAE headache: 10.1%
  TEAE hyperglycemia: 21.7%
  TEAE increased ALT: 13.0%
  TEAE maculopapular rash: 10.1%
  TEAE nausea: 40.6%
  TEAE stomatitis: 24.6%
  TEAE thrombocytopenia: 50.7%
  TEAE vomiting: 24.6%
  serious TEAE anemia: 2.9%
  serious TEAE arthralgia: 2.9%
  serious TEAE cognitive disorder: 4.3%
  serious TEAE decreased platelet count: 1.4%
  serious TEAE diarrhea: 2.9%
  serious TEAE fatigue: 2.9%
  serious TEAE general physical health deterioration: 2.9%
  serious TEAE headache: 4.3%
  serious TEAE noncardiac chest pain: 2.9%
  serious TEAE thrombocytopenia: 2.9%
  subjects with a TEAE leading to death (all not related): 10.1%
  subjects with at least one Grade 3 or 4 TEAE: 58.0%
  subjects with at least one serious TEAE: 46.4%
  subjects with at least one treatment-related Grade 3 or 4 TEAE: 33.3%
  subjects with at least one treatment-related TEAE: 87.0%
  subjects with at least one treatment-related serious TEAE: 11.6%
  treatment-related Grade 3 or 4 TEAE anemia: 4.3%
  treatment-related Grade 3 or 4 TEAE decreased platelet count: 2.9%
  treatment-related Grade 3 or 4 TEAE fatigue: 2.9%
  treatment-related Grade 3 or 4 TEAE hyponatremia: 2.9%
  treatment-related Grade 3 or 4 TEAE increased ALT: 2.9%
  treatment-related Grade 3 or 4 TEAE thrombocytopenia: 13.0%
  treatment-related TEAE anemia: 11.6%
  treatment-related TEAE asthenia: 31.9%
  treatment-related TEAE decreased appetite: 17.4%
  treatment-related TEAE dermatitis acneiform: 13.0%
  treatment-related TEAE diarrhea: 39.1%
  treatment-related TEAE dysgeusia: 26.1%
  treatment-related TEAE fatigue: 21.7%
  treatment-related TEAE hyperglycemia: 11.6%
  treatment-related TEAE nausea: 39.1%
  treatment-related TEAE stomatitis: 23.2%
  treatment-related TEAE thrombocytopenia: 46.4%
  treatment-related TEAE vomiting: 17.4%
  treatment-related serious TEAE anemia: 2.9%
  treatment-related serious TEAE decreased platelet count: 1.4%
  treatment-related serious TEAE diarrhea: 2.9%
  treatment-related serious TEAE fatigue: 2.9%
  treatment-related serious TEAE thrombocytopenia: 2.9%
[2]
  Grade 3 or 4 TEAE decreased platelet count: 4.3%
  Grade 3 or 4 TEAE thrombocytopenia: 10.1%
  TEAE decreased platelet count: 18.8%
  subjects with at least one Grade 3 or 4 TEAE: 49.3%
[3]
  subjects with at least one TEAE Grade 3 or 4 related to study drug: 33.3%
  subjects with at least one TEAE related to study drug: 66.7%
[4]
  subjects with at least one TEAE Grade 3 or 4 related to study drug: 28.6%
  subjects with at least one TEAE related to study drug: 85.7%
Part A, any grade
  TRAE: ALT increased: 7.25%
  TRAE: Anemia: 11.59%
  TRAE: Any TRAE: 86.96%
  TRAE: Asthenia: 31.88%
  TRAE: Decreased appetite: 17.39%
  TRAE: Dehydration: 0%
  TRAE: Dermatitis acneiform: 13.04%
  TRAE: Diarrhoea: 39.13%
  TRAE: Dysgeusia: 26.09%
  TRAE: Fatigue: 21.74%
  TRAE: Hyperglycemia: 11.59%
  TRAE: Hypertension: 1.45%
  TRAE: Hyponatremia: 4.35%
  TRAE: Hypophosphatemia: 2.9%
  TRAE: Nausea: 39.13%
  TRAE: Neutropenia: 7.25%
  TRAE: Platelet count decreased: 4.35%
  TRAE: Stomatitis: 23.19%
  TRAE: Thrombocytopenia: 46.38%
  TRAE: Vomiting: 17.39%
Part A, grade 3
  TRAE: ALT increased: 1.45%
  TRAE: Anemia: 4.35%
  TRAE: Any TRAE: 26.09%
  TRAE: Asthenia: 1.45%
  TRAE: Decreased appetite: 0%
  TRAE: Dehydration: 0%
  TRAE: Dermatitis acneiform: 0%
  TRAE: Diarrhoea: 1.45%
  TRAE: Dysgeusia: 0%
  TRAE: Fatigue: 2.9%
